The source of these data is ChEMBL document CHEMBL1154161, “Synthesis, kinetic studies and pharmacological evaluation of mutual azo prodrugs of 5-aminosalicylic acid for colon-specific drug delivery in inflammatory bowel disease” (Eur J Med Chem, 2009).

The source made the active and inactive calls. The rule behind the calls is not given here.

In data set [1] the test system is Rattus norvegicus. Nature of the data set: Antiarthritic activity against Freund's adjuvant-induced arthritis in Wistar rat assessed as reduction in paw volume administered 13 days after Freund's adjuvant challenge measured on day 21. In kind it is functional. The arrangement: concentration or dose not given beside the values.
In data set [2] the test system is Rattus norvegicus. The experiment in a line: Gastrointestinal toxicity in Wistar rat assessed as ulcer index at 1154.3 mg/kg, po by Rainsford's cold stress method. The format is organism-based. The arrangement: dose 1154.3 mg/kg, route oral. The settings on record: in vivo.
Data set [3] can be described thus: Stability in phosphate buffer of pH 7.4 assessed as drug release after 7 hrs. The settings on record: pH 7.4, 7 h. The format is physicochemical.
In data set [4] the test system is Rattus norvegicus. Nature of the data set: Antiinflammatory activity against trinitrobenzenesulfonic acid-induced colitis in Wistar rat at 100 mg/kg, administered rectally. The format is functional, organism-based. The arrangement: dose 100 mg/kg.
Data set [5] in a line: Stability in rat feces assessed as half life at 250 ug/mL by UV spectrophotometry in presence of azo reductase. The format is ADME, tissue-based.
Data set [6] is described as follows: Aqueous solubility of the compound. The format is physicochemical. The following applies: aqueous medium.
Data set [7] in a line: Stability in 0.05 M hydrochloric acid buffer of pH 1.2. In kind it is physicochemical.
A short description of data set [8]: Partition coefficient, log P in n-octanol/phosphate buffer of pH 7.4. The format is physicochemical.
In data set [9] the test system is Rattus norvegicus. The experiment in a line: Gastrointestinal toxicity in Wistar rat assessed as ulcer index at 3050 mg/kg, po by Rainsford's cold stress method. The arrangement: dose 3050 mg/kg, route oral. The settings on record: in vivo. In kind it is organism-based.
The test system of data set [10] is Rattus norvegicus. The experiment in a line: Antiinflammatory activity against trinitrobenzenesulfonic acid-induced colitis in Wistar rat assessed as decrease in colon to body weight ratio at 100 mg/kg, po measured 24 hrs after last dose on day 11. In kind it is functional, organism-based. The arrangement: dose 100 mg/kg.
Data set [11] in a line: Stability in rat feces assessed as cumulated 5-aminosalicylic acid release measured for 6 to 7 hrs by UV spectrophotometry in presence of azo reductase. The format is ADME, tissue-based.
The test system of data set [12] is Rattus norvegicus. The experiment in a line: Antiinflammatory activity against trinitrobenzenesulfonic acid-induced colitis in Wistar rat assessed as decrease in colonic myeloperoxidase activity at 100 mg/kg, po measured 24 hrs after last dose on day 11 by spectrometry. In kind it is functional, organism-based. The arrangement: dose 100 mg/kg.
Data set [13] concerns Rattus norvegicus. The experiment in a line: Gastrointestinal toxicity in Wistar rat assessed as ulcer index at 3647.7 mg/kg, po by Rainsford's cold stress method. Also noted: dose 3647.7 mg/kg, route oral. The following applies: in vivo. In kind it is organism-based.
Data set [14] has as its system Rattus norvegicus. Nature of the data set: Antiinflammatory activity against trinitrobenzenesulfonic acid-induced colitis in Wistar rat assessed as decrease in appearance of mucosal abscess at 100 mg/kg administered rectally measured 24 hrs after last dose on day 11 by haematoxylin/eosin staining. In kind it is functional, organism-based. Also noted: dose 100 mg/kg.

Data set [15] relates to Rattus norvegicus. Nature of the data set: Antiinflammatory activity against trinitrobenzenesulfonic acid-induced colitis in Wistar rat assessed as decrease in appearance of mucosal abscess at 100 mg/kg administered rectally measured 24 hrs after last dose on day 11 by haematoxylin/eosin staining in presence of sulfasalazine. In kind it is functional, organism-based. The arrangement: dose 100 mg/kg.

For data set [16], the system named is Rattus norvegicus. The experiment in a line: Antiinflammatory activity against trinitrobenzenesulfonic acid-induced colitis in Wistar rat assessed as decrease in inflammatory cell infiltration at 100 mg/kg administered rectallysmeasured 24 hrs after last dose on day 11 by haematoxylin/eosin staining. The format is functional, organism-based. The arrangement: dose 100 mg/kg.

Data set [17] deals with Rattus norvegicus. Nature of the data set: Antiinflammatory activity against trinitrobenzenesulfonic acid-induced colitis in Wistar rat at 100 mg/kg, po. In kind it is functional, organism-based. Also noted: dose 100 mg/kg.
For data set [18], the system named is Rattus norvegicus. The experiment in a line: Antiinflammatory activity against trinitrobenzenesulfonic acid-induced colitis in Wistar rat assessed as decrease in inflammatory cell infiltration at 100 mg/kg administered rectally measured 24 hrs after last dose on day 11 by haematoxylin/eosin staining in presence of sulfasalazine. In kind it is functional, organism-based. Also noted: dose 100 mg/kg.

Data set [19] has as its system Rattus norvegicus. The experiment in a line: Antiinflammatory activity against trinitrobenzenesulfonic acid-induced colitis in Wistar rat assessed as decrease in appearance of mucosal abscess at 100 mg/kg, po measured 24 hrs after last dose on day 11 by haematoxylin/eosin staining. The format is functional, organism-based. Also noted: dose 100 mg/kg.
For data set [20], the system named is Rattus norvegicus. The experiment in a line: Antiinflammatory activity against trinitrobenzenesulfonic acid-induced colitis in Wistar rat assessed as decrease in inflammatory cell infiltration at 100 mg/kg, po measured 24 hrs after last dose on day 11 by haematoxylin/eosin staining. The format is functional, organism-based. Also noted: dose 100 mg/kg.
Data set [21] deals with Rattus norvegicus. Nature of the data set: Antiinflammatory activity against trinitrobenzenesulfonic acid-induced colitis in Wistar rat at 100 mg/kg, administered rectally in presence of 5-aminosalicylic acid. The arrangement: dose 100 mg/kg. The format is functional, organism-based.
Data set [22] deals with Rattus norvegicus. Nature of the data set: Gastrointestinal toxicity in Wistar rat assessed as ulcer index at 2829 mg/kg, po by Rainsford's cold stress method. The format is organism-based. Also noted: dose 2829 mg/kg, route oral. The settings on record: in vivo.
Data set [23] deals with Rattus norvegicus. Nature of the data set: Gastrointestinal toxicity in Wistar rat assessed as ulcer index at 3000 mg/kg, po by Rainsford's cold stress method. In kind it is organism-based. The arrangement: dose 3000 mg/kg, route oral. The settings on record: in vivo.

Regarding `Nc1ccc(O)c(C(=O)O)c1` [MESALAMINE], in data set [1], the Activity was determined as 47%. Further, in data set [2], the UI was 60.03.
Regarding `Nc1ccc(C(=O)O)c(O)c1` [AMINOSALICYLIC ACID], the UI in [2] was determined as 69.61.
A word on the half-life: it is the time in which the quantity being followed falls by half. Broadly, the solubility is the concentration that dissolves in the medium under given conditions. A word on the logD: it is the decadic logarithm of the distribution of all forms, ionised or not, between an organic phase and buffer at a given pH. With `O=C([O-])c1cc(/N=N/[C@H](Cc2ccccc2)C(=O)[O-])ccc1O.[Na+].[Na+]`, the figures for the Activity in data set [3], in [1] and in data set [11] were 15%, 62% and 85%, respectively. Further, the outcome in data set [4], in data set [10] and in data set [12] was Active. For the same compound, the half-life at 250 ug/mL in [5] turned out to be 2.67 h. Also, in data set [6], the solubility was 250 mg/mL. Also, in [7], the Stability result is recorded as “Stable”. In data set [8], this compound came in with a logD of 0.3. In addition, the UI in [9] amounted to 11.3.
On to `O=C([O-])c1cc(/N=N/[C@@H](Cc2ccc(O)cc2)C(=O)[O-])ccc1O.[Na+].[Na+]`, for which the outcome in data set [4], in [10] and in [12] was Active. Moreover, the figures for the Activity in data set [1] and in data set [11] were 62% and 87%, respectively. Further, the half-life at 250 ug/mL in data set [5] was 2.33 h. The UI in data set [13] is 10.76. In [6], this compound had a solubility of 260 mg/mL. For the same compound, in data set [7], the Stability result is reported as “Stable”. Besides, the logD in data set [8] is 0.35.
As for `N[C@@H](Cc1c[nH]c2ccccc12)C(=O)O`, the result in data set [14], in [15], in data set [16], in data set [17], in data set [18] and in data set [19] was Active. For the same compound, the outcome in data set [20] and in [21] was Active.
`O=C([O-])c1cc(/N=N/[C@@H](Cc2c[nH]c3ccccc23)C(=O)[O-])ccc1O.[Na+].[Na+]`: the Activity in data set [3] stood at 15%; in data set [1], 62%; in data set [11] it was 88%. In addition, the result in data set [4], in data set [10] and in data set [12] was Active. Besides, in [5], the half-life at 250 ug/mL was 2.4 h. Also, the solubility in [6] was determined as 280 mg/mL. Further, the Stability result in [7] was “Stable”. In data set [8], the logD was 0.26. The UI in data set [22] worked out at 13.
Turning to `O=C(O)c1cc(/N=N/c2ccc(S(=O)(=O)Nc3ccccn3)cc2)ccc1O` [SULFASALAZINE], the result in [4], in data set [10] and in data set [12] was Active. Besides, the Activity in data set [1] is on record as 73%. The UI in data set [23] was found to be 9.
As for `N[C@@H](Cc1ccc(O)cc1)C(=O)O`, the result in data set [14], in [18] and in data set [21] was Active. The result in data set [17], in data set [19] and in data set [20] was inactive.
Regarding `N[C@H](Cc1ccccc1)C(=O)O`, the outcome in [14], in [15], in data set [4], in data set [16], in [18] and in data set [19] was Active. In data set [21], the outcome was Active.
